The values below come from US20240262795A1, “PYRAZINE COMPOUNDS AS INHIBITORS OF FLT3” (Biomea Fusion, Inc., priority 2021, published 2024).

The target of experiment [1] is T1, WT FLT3 (Homo sapiens, UniProt P36888).
T1 construct: purchased Invitrogen PR4666C
T1 sequence (P36888 564-993 limits assumed): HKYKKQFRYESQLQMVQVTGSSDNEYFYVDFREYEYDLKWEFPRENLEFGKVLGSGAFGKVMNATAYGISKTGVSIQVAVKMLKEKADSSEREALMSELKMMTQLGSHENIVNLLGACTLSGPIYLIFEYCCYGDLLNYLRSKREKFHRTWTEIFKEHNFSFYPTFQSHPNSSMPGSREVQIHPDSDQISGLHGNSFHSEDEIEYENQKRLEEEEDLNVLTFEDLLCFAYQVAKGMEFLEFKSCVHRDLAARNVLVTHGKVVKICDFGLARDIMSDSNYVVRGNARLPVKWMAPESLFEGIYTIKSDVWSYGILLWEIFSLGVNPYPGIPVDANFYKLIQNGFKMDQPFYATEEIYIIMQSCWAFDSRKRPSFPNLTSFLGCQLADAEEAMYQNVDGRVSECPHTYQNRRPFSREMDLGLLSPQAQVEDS
The experiment in a line: WT FLT3 Lance Ultra TR-FRET kinase assay. The class given is biochemical. From the text: (§1) High throughput 384-well Lance Ultra TR-FRET based kinase assays were established for the WT FLT3 and FLT3-ITD enzymes and employed a ULight-labeled peptide […] and FLT3 proteins labelled with Eu-conjugated antibody […] (WuXi Aptec). The principle of TR-FRET is based on transfer of energy between a donor and acceptor fluorophore that results when the fluorophores are within close proximity (˜100 Å) of each other. Recombinant WT FLT3 (#PR4666C, M.W. 48.6 kDa) was purchased from Invitrogen and FLT3-ITD (FLT3-ITD-W51, #F-12-12CG-10, M.W. 76 kDa) was purchased from Signalchem. Optimal assay conditions for the WT FLT3 enzyme assay were as follows: 0.5 nM FLT3 protein, 50 nM ULight-JAK-1 (Tyr1023) substrate peptide (PerkinElmer #TRF0121), 100 μM ATP, 60 min reaction time. Optimal assay conditions for the FLT3-ITD enzyme assay were as follows: 0.0625 nM FLT3-ITD protein, 50 nM ULight-JAK-1 (Tyr1023) substrate peptide, 50 μM ATP, 90 min reaction time. Briefly, 11 dose 3× serial dilutions were prepared for the test compounds and the reference compound and 100 nanoliters transferred to appropriate wells of 384-well assay plates. Five microliters of 2× enzyme/peptide were added into assay wells, assay plates centrifuged at 1000 rpm for about 30 seconds, sealed with sealing film and incubated for 30 min at 23° C. Assay buffer comprised 50 mM HEPES (pH 7.5), 1 mM EDTA, 0.01% Brij-35, 10 mM MgCl2 and 2 mM DTT. Next 5 μl of a 2× ATP mixture were added into the assay wells and the plates centrifuged at 1000 rpm about 30 seconds, sealed with sealing film and incubated for 23° C. for appropriate duration. Following assay incubation (30 min for WT FLT3 and 60 min for FLT3-ITD) 10 μl 2× Detection Mixture (Eu-W1024 Anti-phosphotyrosine (PT66) 2 nM and EDTA 10 mM) was added to assay wells, assay plates centrifuge at 1000 rpm about 1 minutes, sealed with sealing film and incubated at 23° C. for 60 minutes. Assay plates were read on a Perkin Elmer Envision reader at two wavelengths (665/615) and the ratio of […] calculated.
(§2) Data was expressed as % of inhibition relative to the vehicle control and calculated as follows:
(§3) Results were analyzed by XLFIT5 as % inhibition vs. log [compound concentration] and IC50 values were calculated by non-linear regression using four parameter-logistic equation. Fit=(A+((B−A)/(1+((C/x)^D)))). Res=(y−fit).
In general terms: TR-FRET usually uses a lanthanide donor and a delayed reading to cut background.

Experiment [2] deals with K-562. The experiment can be described thus: Proliferation inhibition, CellTiter-Glo, K-562. The conditions noted are these: Homo sapiens, K562, 96 h; K-562 cells, IC50 (4 days), CellTiter-Glo; read-out: K-562 IC50. The class given is cell-based, human. The procedure, abridged: (§4)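 About 10,000 cells per well in RPMI-1640 with 10% FBS. Compounds added 2 h after seeding at eight concentrations in duplicate (0.2% DMSO as 100% proliferation), then incubated ~96 h at 37° C, 5% CO2. ATP measured by CellTiter-Glo luminescence; IC50 from four-parameter logistic fit.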
Background: Cellular ATP, detected with luciferase, serves as a proxy for viable cell number.

For experiment [3], the system named is MOLM-13. The experiment can be described thus: Proliferation inhibition, CellTiter-Glo, MOLM-13. It is filed as cell-based, human. The following applies: Homo sapiens, 96 h; MOLM-13 cells, IC50 (4 days), CellTiter-Glo; read-out: MOLM-13 IC50. The essentials:
as §4

The target of experiment [4] is T2, FLT3-ITD (Homo sapiens, UniProt P36888, DUP595-601).
T2 construct: purchased Signalchem F-12-12CG-10
T2 sequence (P36888 with tags, fused parts or gaps DUP595-601 limits assumed): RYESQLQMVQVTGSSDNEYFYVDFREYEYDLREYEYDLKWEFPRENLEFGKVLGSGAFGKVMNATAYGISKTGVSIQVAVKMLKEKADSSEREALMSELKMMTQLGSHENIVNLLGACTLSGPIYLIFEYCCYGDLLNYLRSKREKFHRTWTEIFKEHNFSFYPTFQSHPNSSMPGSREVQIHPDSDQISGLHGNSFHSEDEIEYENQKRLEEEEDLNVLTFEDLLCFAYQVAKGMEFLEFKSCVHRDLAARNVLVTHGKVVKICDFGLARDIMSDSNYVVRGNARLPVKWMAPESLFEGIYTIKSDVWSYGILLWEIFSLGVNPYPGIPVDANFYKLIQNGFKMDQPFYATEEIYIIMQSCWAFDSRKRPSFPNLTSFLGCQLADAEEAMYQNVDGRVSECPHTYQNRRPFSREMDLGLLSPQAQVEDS
The experiment in a line: FLT3-ITD Lance Ultra TR-FRET kinase assay. It is filed as biochemical.
Excerpt: as §1, §2, §3

In experiment [5] the test system is MV-4-11. The experiment can be described thus: Proliferation inhibition, CellTiter-Glo, MV-4-11. The class given is cell-based, human. The conditions noted are these: Homo sapiens, MV4-11, 96 h; MV-4:11 cells, IC50 (4 days), CellTiter-Glo; read-out: MV-4:11 IC50. The essentials:
as §4

By IC50 is commonly meant the concentration that gives 50% inhibition. Consider `CCc1nc(C(N)=O)c(Nc2cccc([C@@H](C)CNC(=O)CN(C)C(=O)/C=C/CN3CCC3)c2)nc1C(C)C` [Compound 509, (R,E)-3-((3-(1-(2-(4-(azetidin-1-yl)-N-methylbut-2-enamido)acetamido)propan-2-yl)phenyl)amino)-6-ethyl-5-isopropylpyrazine-2-carboxamide], for which the IC50 was 0.201 to 0.5 nM in experiment [1]; above 500 nM in experiment [2]; below 1 nM in experiment [3]; 0.501 to 1 nM in experiment [4]; 1 to 10 nM in experiment [5].
Take `CCc1nc(C(N)=O)c(Nc2cncc(CCNC(=O)[C@H](C)N(C)C(=O)/C=C/CN(C)C)c2)nc1C1CC1` [Compound 306, (S, E)-5-cyclopropyl-3-((5-(2-(2-(4-(dimethylamino)-N-methylbut-2-enamido)propanamido)ethyl)pyridin-3-yl)amino)-6-ethylpyrazine-2-carboxamide]: the IC50 was 0.501 to 1 nM in experiment [1], 1 to 10 nM in experiment [3], above 1 nM in experiment [4] and 1 to 10 nM in experiment [5].
`CCc1cc(C(N)=O)c(Nc2cccc(CCNC(=O)[C@H](C)N(C)C(=O)/C=C/CN(C)C)c2)nc1N(C)C` [Compound 322, (S,E)-6-(dimethylamino)-2-((3-(2-(2-(4-(dimethylamino)-N-methylbut-2-enamido)propanamido)ethyl)phenyl)amino)-5-ethylnicotinamide]: the IC50 in experiment [2] was above 500 nM; in experiment [3], 100 to 500 nM; in experiment [5] it was 10 to 100 nM.
As for `CCc1nc(C(N)=O)c(Nc2cccc([C@H](C)CNC(=O)[C@H](C)N(C)C(=O)/C=C/CN(C)C)c2)nc1C` [Compound 325, 3-[3-[(1S)-2-[[(2S)-2-[[(E)-4-(dimethylamino)but-2-enoyl]-methyl-amino]propanoyl]amino]-1-methyl-ethyl]anilino]-6-ethyl-5-methyl-pyrazine-2-carboxamide], the IC50 is above 500 nM in experiment [2], 100 to 500 nM in experiment [3] and 100 to 500 nM in experiment [5].
`Cc1nc(C(N)=O)c(Nc2cccc(CCNC(=O)[C@H](C)N(C)C(=O)/C=C/CN(C)C)c2)nc1C1CC1` [Compound 228, (S,E)-5-cyclopropyl-3-((3-(2-(2-(4-(dimethylamino)-N-methylbut-2-enamido)propanamido)ethyl)phenyl)amino)-6-methylpyrazine-2-carboxamide]: the IC50 in experiment [2] is above 500 nM; in experiment [3], 1 to 10 nM; in experiment [5] it was 1 to 10 nM.
Take `CCc1nc(C(N)=O)c(Nc2ccc(F)c(CCNC(=O)CN(C)C(=O)/C=C/CN3CCC3)c2)nc1C1CC1` [Compound 607, (E)-3-((3-(2-(2-(4-(azetidin-1-yl)-N-methylbut-2-enamido)acetamido)ethyl)-4-fluorophenyl)amino)-5-cyclopropyl-6-ethylpyrazine-2-carboxamide]: the 50% inhibitory concentration (IC50) is above 500 nM in experiment [2], 1 to 10 nM in experiment [3] and 1 to 10 nM in experiment [5].
With `CCc1nc(C(N)=O)c(Nc2cccc(CCNC(=O)[C@H](C)N(C)C(=O)C#CCN(C)C)c2)nc1C` [Compound 244, (S)-3-((3-(2-(2-(4-(dimethylamino)-N-methylbut-2-ynamido)propanamido)ethyl)phenyl)amino)-6-ethyl-5-methylpyrazine-2-carboxamide], the IC50 in experiment [2] was above 500 nM; in experiment [3], 1 to 10 nM; in experiment [5], below 1 nM.
`CCc1nc(C(N)=O)c(Nc2cccc(C[C@@H](C)NC(=O)[C@H](C)N(C)C(=O)/C=C/CN(C)C)c2)nc1C` [Compound 314, 3-[3-[(2R)-2-[[(2S)-2-[[(E)-4-(dimethylamino)but-2-enoyl]-methyl-amino]propanoyl]amino]propyl]anilino]-6-ethyl-5-methyl-pyrazine-2-carboxamide]: the figures for the IC50 in experiment [2], in experiment [3] and in experiment [5] were above 500 nM, 100 to 500 nM and 10 to 100 nM, respectively.
The like results for `Cc1nc(Nc2cccc(CCNC(=O)[C@H](C)N(C)C(=O)/C=C/CN(C)C)c2)c(C(N)=O)nc1C` [Compound 207, 3-[3-[2-[[(2S)-2-[[(E)-4-(dimethylamino)but-2-enoyl]-methyl-amino]propanoyl]amino]ethyl]anilino]-5,6-dimethyl-pyrazine-2-carboxamide] were, in that order, above 500 nM, 10 to 100 nM and 10 to 100 nM.
The like results for `[2H]C([2H])([2H])N(C/C=C/C(=O)N(C)[C@@H](C)C(=O)NCCc1cccc(Nc2nc(N(C)C(C)C)c(C)nc2C(N)=O)c1)C([2H])([2H])[2H]` [Compound 247, (S,E)-3-((3-(2-(2-(4-(bis(methyl-d3)amino)-N-methylbut-2-enamido)propanamido)ethyl)phenyl)amino)-5-(isopropyl(methyl)amino)-6-methylpyrazine-2-carboxamide] were, in that order, above 500 nM, 1 to 10 nM and below 1 nM.
The like results for `Cc1nc(C(N)=O)c(Nc2cccc(CCNC(=O)[C@H](C)N(C)C(=O)/C=C/CN(C)C)c2)nc1N(C)C` [Compound 233, (S,E)-5-(dimethylamino)-3-((3-(2-(2-(4-(dimethylamino)-N-methylbut-2-enamido)propanamido)ethyl)phenyl)amino)-6-methylpyrazine-2-carboxamide] were, in that order, above 500 nM, 1 to 10 nM and below 1 nM.
With `Cc1nc(Nc2cccc(CCNC(=O)[C@H](C)N(C)C(=O)/C=C/CN3CCC3)c2)c(C(N)=O)nc1C` [Compound 214, 3-[3-[2-[[(2S)-2-[[(E)-4-(azetidin-1-yl)but-2-enoyl]-methyl-amino]propanoyl]amino]ethyl]anilino]-5,6-dimethyl-pyrazine-2-carboxamide], the IC50 is above 500 nM in experiment [2], 10 to 100 nM in experiment [3] and 10 to 100 nM in experiment [5].
`Cc1nc(Nc2cccc(CCNC(=O)CN(C)C(=O)/C=C/CN(C)C)c2)c(C(N)=O)nc1C` [Compound 301, 3-[3-[2-[[2-[[(E)-4-(dimethylamino)but-2-enoyl]-methyl-amino]acetyl]amino]ethyl]anilino]-5,6-dimethyl-pyrazine-2-carboxamide]: the results for the IC50 in experiment [2], in experiment [3] and in experiment [5] were above 500 nM, 10 to 100 nM and 10 to 100 nM, respectively.
